Reference: patent US10030016B2 (Sunesis Pharmaceuticals, Inc., priority 2009, dated 2018)
Structures can show the parent of a compound that is named as a salt.

tested on: phospho-akt (Thr308) in PC-3 cells; assay: Inhibition of phospho-akt (Thr308) in PC-3 cells, MSD phospho-akt 308 ELISA kit; format: cell-based; conditions: Homo sapiens; inhibition of P308 Akt in PC-3 cells using MSD, 2 hours, no serum; read-out: EC50
Description: PC-3 cells were harvested by trypsin and counted. Cells were plated in coated 96-well flat bottom plates (plate 15,000 cells/well in 100 ul growth media (10% FBS, 1× pen-strep) an place in an incubator overnight.
Subject inhibitors were stocked at 50 mM, then diluted to 30 mM (4.8 μl cpd plus […] DMSO) in 100% DMSO. Three-fold dilutions were performed from 30 mM stock. (4 μl into 8 ul 100% DMSO). Aliquots of 1.0 μl of inhibitor solution were transferred into SF Medium (using deep well block).
Control wells were prepared as follows. For DMSO high controls, 1.0 μl of 100% DMSO was added into 1.0 ml SF. For low controls for PC-3 cells, 5 μM of Wortmannin (10 μl of 1 mM Wortmannin stock was added into 2 ml SF Medium. The supernatant media was removed and the plate was blotted. 100 μl of controls/media or compound/media were added to cells and placed in incubator for 2 hours. The supernatant media was removed and the plate was blotted. 55 μl of the MSD complete lysis buffer was added (10 mls Tris Lysis buffer, 200 ul protease inhibitor, 100 ul phosphatase inhibitor 1, and 100 ul phosphatase inhibitor II). The plate was placed on a plate shaker for 60 mins at 4 deg.
MSD plates were blocked for 1 hour by adding 150 μl of Blocking Solution (3% BSA) to each well. The MSD plates were washed 4× with TBST, and 50 μl lysates were transferred to MSD plate and place on plate shaker shake at 4 degrees O/N, light shaking (speed 3.5). The plate was washed 4× with TBST.
25 μl of Ab detection solution was added to each well. The plate was sealed and incubated 1 hr RT, light shaking (speed 3.5). The plate was washed 4 times with TBST. 150 μl of Read Buffer was added (5 mls 4×MSD Read Buffer+15 mls water). Finally the plate was read immediately on the MSD plate reader.

Row | EC50 [µM] | SMILES
1 | < 1 | N#Cc1cnc(NCc2ccc(-c3cnc4[nH]ncc4c3)cc2)c(C(=O)NCc2ccc(F)c(F)c2)c1 [Example 396, 5-Cyano-N-(3,4-difluoro-benzyl)-2-[4-(1H-pyrazolo[3,4-b]pyridin-5-yl)-benzylamino]-nicotinamide]
2 | < 1 | C[C@H](NC(=O)c1nc(C(F)(F)F)cnc1NCc1ccc(-c2cnc3[nH]nc(N)c3c2)cc1)c1ccc(F)c(F)c1 [Example 428, (S)-3-(4-(3-amino-1H-pyrazolo[3,4-b]pyridin-5-yl)benzylamino)-N-(1-(3,4-difluorophenyl)ethyl)-6-(trifluoromethyl) pyrazine-2-carboxamide]

More lines, now with the values behind:

Row | SMILES | EC50 [µM]
3 | Cc1nc(N)cnc1-c1ccc(CNc2ncc(C#N)cc2C(=O)N[C@@H](C)c2ccc(F)cc2)cc1 [Example 107, (S)-2-(4-(5-amino-3-methylpyrazin-2-yl)benzylamino)-5-cyano-N-(1-(4-fluorophenyl)ethyl)nicotinamide] | > 10
4 | C[C@H](NC(=O)c1cc(C#N)cnc1NCc1ccc(-c2cnc3[nH]c(=O)[nH]c3c2)c(F)c1)c1ccc(F)cc1 [Example 127, (S)-5-cyano-2-(3-fluoro-4-(2-oxo-2,3-dihydro-1H-imidazo[4,5-b]pyridin-6-yl)benzyl-amino)-N-(1-(4-fluorophenyl)ethyl) nicotinamide] | < 1
5 | C[C@H](NC(=O)c1cc(C#N)cnc1NCc1ccc(-c2cnc3[nH]c(=O)n(C)c3c2)cc1)c1ccc(F)cc1 [Example 140, (S)-5-cyano-N-(1-(4-fluorophenyl)ethyl)-2-(4-(1-methyl-2-oxo-2,3-dihydro-1H-imidazo [4,5-b]pyridin-6-yl)benzylamino)nicotinamide] | < 1
6 | C[C@H](NC(=O)c1nc(C#N)cnc1NCc1ccc(-c2cnc(N)c(CO)n2)cc1)c1ccc(F)c(F)c1 [Example 241, 3-[4-(5-Amino-6-hydroxy-methyl-pyrazin-2-yl)-benzylamino]-6-cyano-pyrazine-2-carboxylic acid [(S)-1-(3,4-difluoro-phenyl)-ethyl]-amide] | < 1
7 | Nc1ncc(-c2ccc(CNc3ncc(C(F)(F)F)cc3C(=O)Nc3ccc(F)cc3)cc2)nc1CO [Example 242, 2-[4-(5-Amino-6-hydroxy-methyl-pyrazin-2-yl)-benzylamino]-N-(4-fluoro-phenyl)-5-trifluoromethyl-nicotinamide] | < 1
8 | C[C@H](NC(=O)c1cc(C#N)cnc1NCC#Cc1ccc2nc(N)ncc2c1)c1ccc(F)cc1 [Example 257, (S)-2-(3-(2-aminoquinazolin-6-yl)prop-2-ynylamino)-5-cyano-N-(1-(4-fluorophenyl)ethyl)nicotinamide] | < 1
9 | C[C@H](NC(=O)c1nc(C#N)cnc1NCC#Cc1ccc2nc(N)ncc2c1)c1ccc(F)c(F)c1 [Example 258, (S)-3-(3-(2-aminoquinazolin-6-yl)prop-2-ynylamino)-6-cyano-N-(1-(3,4-difluorophenyl)ethyl) pyrazine-2-carboxamide] | < 1
10 | C[C@H](NC(=O)c1cc(C#N)cnc1NCc1ccc(-c2cnc3[nH]nc(N)c3c2)cc1Cl)c1ccc(F)cc1 [Example 406, 2-[4-(3-Amino-1H-pyrazolo [3,4-b]pyridin-5-yl)-2-chloro-benzylamino]-5-cyano-N-[(S)-1-(4-fluoro-phenyl)-ethyl]-nicotinamide] | 1 to 10
11 | C[C@H](NC(=O)c1cc(C#N)cnc1NCc1ccc(-c2cnc3[nH]nc(N)c3c2)cc1F)c1ccc(F)cc1 [Example 407, 2-[4-(3-Amino-1H-pyrazolo [3,4-b]pyridin-5-yl)-2-fluoro-benzylamino]-5-cyano-N-[(S)-1-(4-fluoro-phenyl)-ethyl]-nicotinamide] | < 1
12 | C[C@H](NC(=O)c1nc(C#N)cnc1N[C@H](C)c1ccc(-c2cnc3[nH]nc(N)c3c2)nc1)c1ccc(F)c(F)c1 [Example 415, 3-{(R)-1-[6-(3-Amino-1H-pyrazolo[3,4-b]pyridin-5-yl)-pyridin-3-yl]-ethylamino}-6-cyano-pyrazine-2-carboxylic acid [(S)-1-(3,4-difluoro-phenyl)-ethyl]-amide] | < 1
13 | C[C@H](NC(=O)c1cc(C#N)cnc1N[C@H](C)c1ccc(-c2cnc3[nH]nc(N)c3c2)nc1)c1ccc(F)cc1 [Example 416, 2-{(R)-1-[6-(3-Amino-1H-pyrazolo[3,4-b]pyridin-5-yl)-pyridin-3-yl]-ethylamino}-5-cyano-N-[(S)-1-(4-fluoro-phenyl)-ethyl]-nicotinamide] | < 1
14 | N#Cc1cc(F)ccc1NC(=O)c1cc(C(F)(F)F)cnc1NCc1ccc(-c2cnc3[nH]nc(N)c3c2)cc1 [Example 418, 2-(4-(3-amino-1H-pyrazolo [3,4-b]pyridin-5-yl)benzylamino)-N-(2-cyano-4-fluorophenyl)-5-(trifluoromethyl)nicotinamide] | 1 to 10
15 | C[C@H](NC(=O)c1nc(C(F)(F)F)cnc1N[C@H](C)c1ccc(-c2cnc3[nH]nc(N)c3c2)cc1)c1ccc(F)c(F)c1 [Example 427, 3-((R)-1-(4-(3-amino-1H-pyrazolo[3,4-b]pyridin-5-yl)phenyl)ethylamino)-N-((S)-1-(3,4-difluorophenyl)ethyl)-6-(trifluoromethyl) pyrazine-2-carboxamide] | 1 to 10

same assay, conditions: Homo sapiens; inhibition of P308 Akt in PC-3 cells, 2 hours, no serum, MSD; read-out: EC50

Row | EC50 [µM] | SMILES
16 | < 1 | CCc1cnc(NCc2ccc(-c3ccc4ncnc(N)c4c3)s2)c(C(=O)NCc2ccc(F)c(F)c2)c1 [Ex. 8.11, 2-({[5-(4-aminoquinazolin-6-yl)thiophen-2-yl]methyl}amino)-N-(3,4-difluorobenzyl)-5-ethylpyridine-3-carboxamide]
17 | > 10 | C[C@H](NC(=O)c1cccnc1NCc1ccc(-c2cc3c(cn2)ncn3C)s1)c1ccc(F)cc1 [Example 2.6, (S)-N-(1-(4-fluorophenyl)ethyl)-2-(((5-(1-methyl-1H-imidazo [4,5-c]pyridin-6-yl)thiophen-2-yl)methyl)amino)nicotinamide]
18 | 1 to 10 | C[C@H](NC(=O)c1cccnc1NCc1ccc(-c2ccc3ncnc(NCCO)c3c2)s1)c1ccc(F)cc1 [Example 2.14, (S)-N-(1-(4-fluorophenyl)ethyl)-2-(((5-(4-(2-hydroxyethylamino)quinazolin-6-yl)thiophen-2-yl)methyl)amino)nicotinamide]
19 | > 10 | C[C@H](NC(=O)c1cccnc1NCc1ccc(-c2ccc3nc(N)sc3c2)s1)c1ccc(F)cc1 [Example 2.22, (S)-2-(((5-(2-aminobenzo[d]thiazol-6-yl)thiophen-2-yl)methyl)amino)-N-(1-(4-fluorophenyl)ethyl) nicotinamide]
20 | 1 to 10 | COCCNC(=O)c1cccnc1NCc1ccc(-c2ccc3ncnc(N)c3c2)s1 [Example 3.35, 2-({[5-(4-aminoquinazolin-6-yl)thiophen-2-yl]methyl}amino)-N-(2-methoxyethyl)pyridine-3-carboxamide (TFA salt)]
21 | > 10 | Cc1ccc(NC(=O)c2cccnc2NCc2ccc(-c3ccc4ncnc(N)c4c3)s2)cc1F [Example 3.50, 2-({[5-(4-aminoquinazolin-6-yl)thiophen-2-yl]methyl}amino)-N-(3-fluoro-4-methylphenyl) pyridine-3-carboxamide (TFA salt)]
22 | 1 to 10 | Nc1ncnc2ccc(-c3ccc(CNc4ncccc4C(=O)NCc4cncc(F)c4)s3)cc12 [Example 3.65, 2-({[5-(4-aminoquinazolin-6-yl)thiophen-2-yl]methyl}amino)-N-[(5-fluoropyridin-3-yl)methyl] pyridine-3-carboxamide (TFA salt)]
23 | > 10 | Nc1ncnc2ccc(-c3ccc(CNc4ncc(Br)cc4S(=O)(=O)NCc4ccc(F)c(F)c4)s3)cc12 [Example 20.1, 2-(((5-(4-aminoquinazolin-6-yl)thiophen-2-yl)methyl)amino)-5-bromo-N-(3,4-difluorobenzyl)pyridine-3-sulfonamide]
